Data from the supplement of paper PMC12592484.

Columns and labels:
Test in all cases: drug sensitivity score (DSS2, normalised partial AUC of dose-response, 72 h CellTiter-Glo viability) (DSS (dimensionless)); higher = more sensitive (stronger growth inhibition / cytotoxicity); extreme values may be limits of the assay
[1] = test system: 22Rv1
Summary of the method: (§1)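 In BREEZE, the drug sensitivity score was derived as a partial area under a fitted logistic dose–response curve over the log of that curve's upper asymptote; a higher score marks a more sensitive response. The input came from low-passage primary prostate cancer-associated fibroblasts, PF179T, WPMY-1, LNCaP and 22Rv1 cells, each seeded into 384-well plates with compounds pre-dispensed at five doses spanning a 10,000-fold range. CellTiter-Glo 2.0 luminescence after 72 h gave viability, which was normalized to vehicle and positive-control wells.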

[2] = test system: PF179T
Summary of the method: as §1

[3] = test system: CAF#2 (primary prostate cancer-associated fibroblasts of iCAF-like type)
Summary of the method: as §1

[4] = test system: WPMY-1
Summary of the method: as §1

[5] = test system: CAF#3 (primary prostate cancer-associated fibroblasts of myCAF-like type)
Summary of the method: as §1

[6] = test system: CAF#4 (primary prostate cancer-associated fibroblasts of iCAF-like type)
Summary of the method: as §1

[7] = test system: CAF#6 (primary prostate cancer-associated fibroblasts of iCAF-like type)
Summary of the method: as §1

[8] = test system: CAF#7 (primary prostate cancer-associated fibroblasts of myCAF-like type)
Summary of the method: as §1

[9] = test system: CAF#5 (primary prostate cancer-associated fibroblasts of myCAF-like type)
Summary of the method: as §1

[10] = test system: CAF#1 (primary prostate cancer-associated fibroblasts of myCAF-like type)
Summary of the method: as §1

[11] = test system: LNCAP
Summary of the method: as §1

| SMILES | drug sensitivity score [1] | drug sensitivity score [2] | drug sensitivity score [3] | drug sensitivity score [4] | drug sensitivity score [5] | drug sensitivity score [6] | drug sensitivity score [7] | drug sensitivity score [8] | drug sensitivity score [9] | drug sensitivity score [10] | drug sensitivity score [11] |
| --- | --- | --- | --- | --- | --- | --- | --- | --- | --- | --- | --- |
| CC#CC(=O)N1CCC[C@H]1c1nc(-c2ccc(C(=O)Nc3ccccn3)cc2)c2c(N)nccn12 [Acalabrutinib] (tested concentration range 0.1-1000 nM) | 0 | 0 | 0.4 | 0 | 0 | 0 | 0 | 0 | 0.8 | 0.1 | 0 |
| COc1cc(C)c(/C=C/C(C)=C/C=C/C(C)=C/C(=O)O)c(C)c1C [Acitretin] (tested concentration range 1-10000 nM) | 0 | 6.3 | 4 | 0 | 0.2 | 0.1 | 0.4 | 0 | 0.8 | 1.7 | 0 |
| C=CCn1c(=O)c2cnc(Nc3ccc(N4CCN(C)CC4)cc3)nc2n1-c1cccc(C(C)(C)O)n1 [Adavosertib] (tested concentration range 1-10000 nM) | 11.9 | 10.4 | 10.3 | 21.5 | 2.7 | 8.9 | 4 | 7.3 | 5.9 | 7.3 | 17 |
| CN(C)C/C=C/C(=O)Nc1cc2c(Nc3ccc(F)c(Cl)c3)ncnc2cc1O[C@H]1CCOC1 [Afatinib] (tested concentration range 0.1-1000 nM) | 3.4 | 0 | 0.3 | 0 | 0 | 0 | 0 | 0 | 0 | 0.3 | 2.7 |
| Cn1ncc(Cl)c1-c1cc(C(=O)N[C@H](CN)Cc2cccc(F)c2)sc1Cl [Afuresertib] (tested concentration range 0.1-1000 nM) | 4.6 | 0.1 | 1.5 | 0.6 | 0 | 1.7 | 0.6 | 0 | 2 | 3.2 | 17 |
| CCc1cc2c(cc1N1CCC(N3CCOCC3)CC1)C(C)(C)c1[nH]c3cc(C#N)ccc3c1C2=O [Alectinib] (tested concentration range 0.1-1000 nM) | 0.2 | 0 | 0.2 | 0 | 0 | 0 | 0 | 0 | 0.3 | 1 | 0.5 |
| COc1cc(Nc2ncc3c(n2)-c2ccc(Cl)cc2C(c2c(F)cccc2OC)=NC3)ccc1C(=O)O [Alisertib] (tested concentration range 1-10000 nM) | 0 | 7.6 | 9.4 | 16.3 | 3.3 | 4.5 | 1.2 | 3.5 | 6 | 4.9 | 9.6 |
| Oc1ncnc2[nH]ncc12 [Allopurinol] (tested concentration range 1-10000 nM) | 0 | 0 | 0 | 0 | 0 | 0 | 0 | 0 | 0 | 0 | 0 |
| Cc1nc(NC(=O)N2CCC[C@H]2C(N)=O)sc1-c1ccnc(C(C)(C)C(F)(F)F)c1 [Alpelisib] (tested concentration range 0.2-2500 nM) | 4.8 | 0 | 2.5 | 1.3 | 2.1 | 2.6 | 3 | 3.4 | 3.1 | 2.9 | 1.1 |
| CN1CC[C@H](c2c(O)cc(O)c3c(=O)cc(-c4ccccc4Cl)oc23)[C@H](O)C1 [Alvocidib] (tested concentration range 1-10000 nM) | 17.4 | 10 | 16.8 | 16.5 | 16.5 | 12.7 | 13.9 | 15.4 | 15.4 | 15.9 | 18.2 |
| CCN(CC)CCNC(=O)c1c(C)[nH]c(/C=C2\C(=O)Nc3ccc(-c4csc(-c5ccccc5)n4)cc32)c1C [Amcasertib] (tested concentration range 1-10000 nM) | 6.8 | 0 | 2.3 | 0 | 0 | 7.1 | 0 | 0 | 6.6 | 7 | 3.5 |
| CCC1(c2ccc(N)cc2)CCC(=O)NC1=O (stereo unspecified) [Aminoglutethimide] (tested concentration range 1-10000 nM) | 0 | 0 | 0 | 0 | 0.2 | 0 | 0 | 0 | 0 | 0 | 0.3 |
| COc1cc(NS(C)(=O)=O)ccc1Nc1c2ccccc2nc2ccccc12 [Amsacrine] (tested concentration range 1-10000 nM) | 10.1 | 7.7 | 6.7 | 11.1 | 3.1 | 2.4 | 3.8 | 7.1 | 2.2 | 3.2 | 17 |
| O=C1CN2Cc3c(ccc(Cl)c3Cl)N=C2N1 [Anagrelide] (tested concentration range 1-10000 nM) | 0 | 0 | 0.6 | 0 | 7.2 | 0 | 0 | 8.8 | 0.6 | 8.4 | 0 |
| CC(C)(C#N)c1cc(Cn2cncn2)cc(C(C)(C)C#N)c1 [Anastrozole] (tested concentration range 1-10000 nM) | 0 | 0 | 0 | 0 | 0 | 0 | 0 | 0 | 0 | 0 | 0 |
| CNC(=O)c1ccc(N2C(=S)N(c3cnc(C#N)c(C(F)(F)F)c3)C(=O)C23CCC3)cc1F [Apalutamide] (tested concentration range 1-10000 nM) | 0 | 0.9 | 0.8 | 0 | 0.8 | 0 | 0.2 | 0 | 0.1 | 0.2 | 2.7 |
| N#CC1(c2ccc(NC(=O)c3cccnc3NCc3ccncc3)cc2)CCCC1 [Apatinib] (tested concentration range 1-10000 nM) | 0 | 0 | 0 | 0 | 1.8 | 0 | 2.6 | 2.2 | 0 | 0 | 5.8 |
| O=C(Nc1ccc(OC(F)(F)Cl)cc1)c1cnc(N2CC[C@@H](O)C2)c(-c2cc[nH]n2)c1 [Asciminib] (tested concentration range 0.1-1000 nM) | 0 | 0 | 0 | 0 | 0 | 0 | 0 | 0 | 0 | 0.5 | 0 |
| CC(C)c1c(C(=O)Nc2ccccc2)c(-c2ccccc2)c(-c2ccc(F)cc2)n1CC[C@@H](O)C[C@@H](O)CC(=O)O [Atorvastatin] (tested concentration range 1-10000 nM) | 3.3 | 3 | 8.4 | 2.7 | 6.1 | 3.5 | 5.2 | 5.9 | 5.4 | 4.7 | 1.1 |
| CC(=O)OC[C@H]1O[C@@H]([S-])[C@H](OC(C)=O)[C@@H](OC(C)=O)[C@@H]1OC(C)=O.CCP(CC)CC.[Au+] [Auranofin] (tested concentration range 0.2-2500 nM) | 5.7 | 0 | 5 | 5.2 | 5.1 | 3.3 | 5.4 | 7.2 | 3.5 | 3.7 | 13.1 |
| Cc1nc2cccc(N)c2c(=O)n1C1CCC(=O)NC1=O (stereo unspecified) [Avadomide] (tested concentration range 1-10000 nM) | 0 | 0.1 | 0 | 0 | 0.4 | 2.2 | 0 | 0 | 0 | 0 | 0 |
| CNC(=O)c1ccccc1Sc1ccc2c(/C=C/c3ccccn3)n[nH]c2c1 [Axitinib] (tested concentration range 1-10000 nM) | 1.6 | 0.8 | 5.1 | 4.9 | 5.5 | 4.2 | 3.3 | 5.5 | 2 | 2.8 | 5.7 |
| Nc1ncn([C@@H]2O[C@H](CO)[C@@H](O)[C@H]2O)c(=O)n1 [Azacitidine] (tested concentration range 1-10000 nM) | 2.8 | 2.6 | 3 | 2 | 1.8 | 2.3 | 2.2 | 3.2 | 0.5 | 2.3 | 2.4 |
| Cc1cc(-c2nc(-c3ccc(OC(F)(F)F)cc3)no2)nn1Cc1ccnc(N2CCN(C3CC3)CC2)c1 [BAY 87-2243] (tested concentration range 0.1-1000 nM) | 19.8 | 26.4 | 1.6 | 23.2 | 0.5 | 0 | 0 | 0 | 0 | 0 | 24.8 |
| O=C(Nc1cccc(Nc2ncc(Br)c(NCCc3cnc[nH]3)n2)c1)N1CCCC1 [BX-912] (tested concentration range 1-10000 nM) | 1.9 | 7.6 | 7.5 | 9.9 | 7.6 | 3.1 | 6.2 | 10 | 8.1 | 6.1 | 3.5 |
| CCS(=O)(=O)N1CC(CC#N)(n2cc(-c3ncnc4[nH]ccc34)cn2)C1 [Baricitinib] (tested concentration range 0.2-2500 nM) | 0 | 0 | 0 | 0 | 0 | 0 | 0 | 0 | 0 | 0 | 0 |
